What all share (format): cell-based, human
One series relates to p21. Put plainly: p21 protein by immunoblotting in SKOV-3 cells. To be noted: SKOV-3, after 4 days following siRNA transfection. On the procedure: Cells transfected with either control or TSG101 siRNA were passaged and subsequently harvested on the appropriate days by trypsinizing cells, washing pelleted cells in PBS and then lysing cells in SDS lysis buffer. Protein concentration of cell lysates was assayed with the Bio-Rad protein assay reagent. […] Immunoblots were developed by enhanced chemiluminescence (Pierce, Rockford, Ill.).
On the technique in general: A western blot detects proteins with antibodies after separation by electrophoresis.

The subject of series [1] is SKOV-3 cells. The series can be described thus: Cell viability MTT assay. Particulars: SKOV-3, days 3 to 7 post transfection, vs scrambled control siRNA. The source says: (§1) A siRNA duplex specific for TSG101 (targeting TSG101 coding sequence 413-433) and a scrambled random control siRNA with matching GC content were obtained from Dharmacon. This specific TSG101 siRNA duplex (sense: CCUCCAGUCUUCUCUCGUCdTdT (SEQ ID NO: 7) and antisense: dTd[…] (SEQ ID NO: 8) have been successfully applied to suppress the expression of endogenous TSG101 in several high quality studies (Amit et al., 2004; Garrus et al., 2001; Hewitt et al., 2002; Ismaili et al., 2005). Transfection of the siRNAs was according to the manufacturer's instructions using Lipofectamine 2000 (Invitrogen).
SKOV-3 cells were trypsinized 48 hrs post-transfection with siRNAs and plated at 2×10^3 cells/well in 96 well plates, with 5 wells for each treatment. On subsequent days (days 3 to 7), media was removed and 100 μl/well fresh media was added along with 10 μl of 3-(4,5-dimethylthiazol-2-yl)-2,5-diphenyl tetrazolium bromide (MTT) to a final concentration of 500 μg/ml. Cells were incubated for 3 hrs at 37° C., and then lysed by adding 200 μl/well DMSO and incubating at 37° C. for 1 hr. Cell viability was measured by reduction of MTT, which registered absorbance at 595 nm on a Molecular Devices microplate reader.

In series [2] the test system is TSG101 recruitment to the p21 promoter. The series can be described thus: Chromatin immunoprecipitation (ChIP) assay with TSG101 antibody. Particulars: SKOV-3, ChIP with TSG101 antibody, vs control siRNA. From the text:
Pelleted DNA was resuspended in TBE. […] ID NO: 11), reverse [NT] ID NO:12).

Another series deals with CITED2. Put plainly: CITED2 protein by immunoblotting in SKOV-3 cells. Particulars: SKOV-3, immunoblotting.
Excerpt: Antigen-antibody complexes were detected by enhanced chemiluminescence (Pierce).
as §1

Series [3] relates to HIF-1α transcriptional activity. The series can be described thus: HIF-1α GFP reporter assay (HRE-GFP) in SKOV-3 cells. The protocol: Cells were plated at 1×10^5 in 3.5 cm wells and grown overnight at 37° C. The following day cells were transfected with 375 ng/well of either TSG101 or control siRNA duplex using Lipofectamine 2000. Cells were then passaged at 48 hrs post-transfection and used for subsequent experiments. The HIF-1α response element (HRE)-GFP reporter (a generous gift from Mark Dewhirst) was transfected into cells 48 hrs after transfection with siRNA reagents, and subsequently plated onto microscope cover slips. On the fifth day following siRNA transfection, cells on cover slips were rinsed in PBS and fixed in 2% paraformaldehyde for 15 min. Nuclear staining was carried out with DAPI (5 ng/ml) for 5 min, after which slides were mounted and observed using a fluorescence microscope (Olympus BX51) equipped with a Hamamatsu digital camera (C4742-95).
To test the functional consequence of TSG101 knock-down mediated down-regulation of CITED2/HIF-1 ? HIF-1 ? transcriptional activity was examined using a HIF-1-inducible fluorescent reporter. This construct was created by splicing five copies of the hypoxia regulatory element (HRE) upstream of enhanced green fluorescent protein (GFP), which provided a convenient method for monitoring HIF-1 activity levels by following GFP expression using fluorescence microscopy (Moeller et al., 2004).
For orientation: A reporter such as luciferase makes a cellular process visible.

Series [4] concerns SKOV-3 cells. Put plainly: Nuclear DNA condensation staining (Hoechst). To be noted: SKOV-3, day 5 following siRNA transfection. The protocol:
2-3×10^5 SKOV-3 cells were plated in 3 cm tissue culture plates containing polylysine coated coverslips, and transfected with either control or TSG101 siRNA. Cells on coverslips were stained 5 days post-transfection with Hoechst 22658 for 30 min, rinsed with PBS, and sealed onto glass slides. Nuclear DNA condensation was examined using a fluorescence microscope (Olympus BX51) equipped with a Hamamatsu digital camera (C4742-95).

Another series relates to caspase 3. Put plainly: Caspase activity assay. To be noted: SKOV-3 lysates, 6 days following transfection. On the procedure: SKOV-3 cells transfected with either control or TSG101 siRNA were grown in 10 cm plates to 70-80% confluence, then harvested by trypsinization, washed twice in PBS and once in wash buffer (100 mM HEPES pH 7.4, 0.5 mM EDTA, 1 mM DTT, 0.1 mM PMSF, 2 μg/ml leupeptin, 2 μg/ml pepstatin). The cells were lysed on ice for 30 min with frequent vortexing in 150 μl of lysis buffer (wash buffer plus 1% Triton-X100). Cell debris was removed by centrifugation at 16,000 g for 20 min at 4° C. Lysate protein concentration was determined by Bradford assay (Bio-Rad). Caspase 3 activity was measured using fluorogenic substrates […] that is specific for caspase 3. Release of free AFC was monitored using a Fluoroskan fluorescence microplate reader with excitation and emission set to 405 and 510 nm, correspondingly.

Another series deals with p21 promoter. Put plainly: p21 promoter luciferase reporter assay in SKOV-3 cells. The source says: To investigate the mechanism by which TSG101 silencing induced the accumulation of p21 mRNA, a plasmid construct, p21P, with a luciferase reporter gene under the transcriptional control of the p21 promoter was co-transfected into the SKOV-3 cells either with TSG101 specific or control siRNA. […] Since SKOV-3 cells are p53-null, this apparent TSG101 silencing-mediated transcriptional activation of p21 was most likely p53-independent.
To further confirm this observation, the luciferase reporter activity was monitored using a deletion p21 reporter construct, p21PΔ1.1, which contained a 1.1 kb deletion that removed the consensus p53-responsive element from the 5′ region of the 2.4 kb p21 promoter 27. […] Since TSG101 contained a putative DNA-binding domain and could act as a general transcriptional suppressor 2, it was hypothesized that TSG101, acting as a transcriptional corepressor, suppressed the transactional activation of p21 by binding to the p21 promoter. Consequently, suppression of TSG101 by siRNA led to the transcriptional activation of p21.

“Also recorded” adds a separate entry of the source.

Regarding “TSG101 siRNA: siRNA duplex from Dharmacon targeting TSG101 coding sequence 413-433, SEQ ID NO: 7 and 8 (chain 1 CCUCCAGUCUUCUCUCGUCTT; chain 2 TTGGAGGUCAGAAGAGAGCAG; chemistry not fully specified; one strand is listed 3' to 5')”, the p21 protein level entry in the series with p21 is listed as “significantly upregulated”. For the same substance, the “cell viability (MTT)” value in the series on SKOV-3 cells [1] was “decrease dramatically in number beginning 5 days post transfection”. For the same substance, in series [2], the “recruitment of TSG101 to the p21 promoter” value is “dramatically reduced”. In addition, the “cellular levels of CITED2 protein” value with CITED2 is recorded as “significantly reduced”. In series [3] (SKOV-3, fluorescence microscopy, 4 days post-transfection as printed), the “fluorescent signal from GFP expression (HRE-GFP)” value is “significantly decreased”. In addition, in series [3] (SKOV-3, immunoblotting), the “GFP protein expression (HRE-GFP)” value is recorded as “significantly decreased expression of GFP”. Besides, the “nuclear DNA condensation/fragmentation” value with SKOV-3 cells [4] is reported as “apparent increases”. In addition, the “caspase 3 activity” value in the series with caspase 3 is reported as “apparent increases”. Besides, the “induction of p21 (luciferase reporter)” value with p21 promoter (SKOV-3, full-length p21 promoter construct p21P) is 6 fold; with p21 promoter (SKOV-3, p53-deletion construct p21PΔ1.1), 6 fold. Besides, in the series on p21 promoter (SKOV-3, p21P construct co-transfected with siRNA, vs control siRNA), the “luciferase activity (p21 promoter reporter)” value is reported as “significantly increased; also recorded: potentiates p21 transcription”.

The values are drawn from patent US7897340B2, “Use of tumor susceptibilty gene 101 (TSG 101) as a prognostic and diagnostic marker” (The Board of Regents of the University of Texas System, priority 2006, dated 2011).
